Results from article PMC4589357, “The Role of Electrostatic Interactions in Binding of Histone H3K4me2/3 to the Sgf29 Tandem Tudor Domain” (PLoS ONE, 2015).
Changes are numbered by the printed parent chain. Values joined by “and” are separate entries in the source; they are usually repeats but may differ in a detail not shown here. Equal values may be shown once. Blank lines part the entries; values can stand above or below the molecule they belong to. No end group written: not given here. Me3 = trimethyl (on lysine, trimethyllysine)

Columns and labels:
Sgf29 D266A = biological target: T1, Sgf29 D266A (Homo sapiens, UniProt Q96ES7, D266A); experiment: ITC binding of histone peptides to Sgf29 D266A
T1 construct: 6xHis (cleaved yes); made in house; host or cells: E. coli Rosetta BL21 DE3 PlysS
T1 sequence (Q96ES7 115-293 D266A): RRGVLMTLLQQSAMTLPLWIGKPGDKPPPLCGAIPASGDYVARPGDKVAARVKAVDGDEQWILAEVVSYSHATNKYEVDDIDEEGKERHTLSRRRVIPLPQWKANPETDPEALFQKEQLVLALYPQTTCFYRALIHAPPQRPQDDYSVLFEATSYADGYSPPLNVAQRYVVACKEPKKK

Sgf29 D266Y = biological target: T2, Sgf29 D266Y (Homo sapiens, UniProt Q96ES7, D266Y); experiment: ITC binding of histone peptides to Sgf29 D266Y
T2 construct: 6xHis (cleaved yes); made in house; host or cells: E. coli Rosetta BL21 DE3 PlysS
T2 sequence (Q96ES7 115-293 D266Y): T1 sequence (Q96ES7 115-293 D266A) with A152Y

[1] = biological target: T3, tandem tudor domain of Sgf29, WT (Homo sapiens, UniProt Q96ES7); experiment: ITC binding of histone peptides to WT Sgf29
T3 construct: 6xHis (cleaved yes); made in house; host or cells: E. coli Rosetta BL21 DE3 PlysS
T3 sequence (Q96ES7 115-293): T1 sequence (Q96ES7 115-293 D266A) with A152D

Sgf29 D266N = biological target: T4, Sgf29 D266N (Homo sapiens, UniProt Q96ES7, D266N); experiment: ITC binding of histone peptides to Sgf29 D266N
T4 construct: 6xHis (cleaved yes); made in house; host or cells: E. coli Rosetta BL21 DE3 PlysS
T4 sequence (Q96ES7 115-293 D266N): T1 sequence (Q96ES7 115-293 D266A) with A152N

Sgf29 Y238F = biological target: T5, Sgf29 Y238F (Homo sapiens, UniProt Q96ES7, Y238F); experiment: ITC binding of histone peptides to Sgf29 Y238F
T5 construct: 6xHis (cleaved yes); made in house; host or cells: E. coli Rosetta BL21 DE3 PlysS
T5 sequence (Q96ES7 115-293 Y238F): T1 sequence (Q96ES7 115-293 D266A) with Y124F, A152D

Sgf29 D266E = biological target: T6, Sgf29 D266E (Homo sapiens, UniProt Q96ES7, D266E); experiment: ITC binding of histone peptides to Sgf29 D266E
T6 construct: 6xHis (cleaved yes); made in house; host or cells: E. coli Rosetta BL21 DE3 PlysS
T6 sequence (Q96ES7 115-293 D266E): T1 sequence (Q96ES7 115-293 D266A) with A152E

Sgf29 Y245F = biological target: T7, Sgf29 Y245F (Homo sapiens, UniProt Q96ES7, Y245F); experiment: ITC binding of histone peptides to Sgf29 Y245F
T7 construct: 6xHis (cleaved yes); made in house; host or cells: E. coli Rosetta BL21 DE3 PlysS
T7 sequence (Q96ES7 115-293 Y245F): T1 sequence (Q96ES7 115-293 D266A) with Y131F, A152D

Sgf29 D266F = biological target: T8, Sgf29 D266F (Homo sapiens, UniProt Q96ES7, D266F); experiment: ITC binding of histone peptides to Sgf29 D266F
T8 construct: 6xHis (cleaved yes); made in house; host or cells: E. coli Rosetta BL21 DE3 PlysS
T8 sequence (Q96ES7 115-293 D266F): T1 sequence (Q96ES7 115-293 D266A) with A152F

Sgf29 D266W = biological target: T9, Sgf29 D266W (Homo sapiens, UniProt Q96ES7, D266W); experiment: ITC binding of histone peptides to Sgf29 D266W
T9 construct: 6xHis (cleaved yes); made in house; host or cells: E. coli Rosetta BL21 DE3 PlysS
T9 sequence (Q96ES7 115-293 D266W): T1 sequence (Q96ES7 115-293 D266A) with A152W

[2] = biological target: T10, Sgf29 D266Y variant, residues 115-293 (human, UniProt Q96ES7 115-293, D266Y); experiment: ITC; peptide (generally 1.2 mM) titrated to protein (100 uM); for variants of low affinity 2.4 mM peptide to 200 uM protein; 25 mM TRIS pH 8.0, 50 mM NaCl, 1 mM DTT; one-site model; settings: both partners purified
T10 construct: source: E. coli Rosetta BL21 DE3 PlysS, purified (Ni-NTA, TEV cleavage, SEC Superdex 75)
T10 sequence (looked up): T1 sequence (Q96ES7 115-293 D266A) with A152Y

[3] = biological target: T11, Sgf29 D266E variant, residues 115-293 (human, UniProt Q96ES7 115-293, D266E); experiment: as above; settings: both partners purified
T11 construct: source: E. coli Rosetta BL21 DE3 PlysS, purified (Ni-NTA, TEV cleavage, SEC Superdex 75)
T11 sequence (looked up): T1 sequence (Q96ES7 115-293 D266A) with A152E

[4] = biological target: T12, Sgf29 D266F variant, residues 115-293 (human, UniProt Q96ES7 115-293, D266F); experiment: as above; settings: both partners purified
T12 construct: source: E. coli Rosetta BL21 DE3 PlysS, purified (Ni-NTA, TEV cleavage, SEC Superdex 75)
T12 sequence (looked up): T1 sequence (Q96ES7 115-293 D266A) with A152F

[5] = biological target: T13, Sgf29 D266N variant, residues 115-293 (human, UniProt Q96ES7 115-293, D266N); experiment: as above; settings: both partners purified
T13 construct: source: E. coli Rosetta BL21 DE3 PlysS, purified (Ni-NTA, TEV cleavage, SEC Superdex 75)
T13 sequence (looked up): T1 sequence (Q96ES7 115-293 D266A) with A152N

[6] = biological target: T14, Sgf29 D266W variant, residues 115-293 (human, UniProt Q96ES7 115-293, D266W); experiment: as above; settings: both partners purified
T14 construct: source: E. coli Rosetta BL21 DE3 PlysS, purified (Ni-NTA, TEV cleavage, SEC Superdex 75)
T14 sequence (looked up): T1 sequence (Q96ES7 115-293 D266A) with A152W

[7] = biological target: T15, Sgf29 Y245F variant, residues 115-293 (human, UniProt Q96ES7 115-293, Y245F); experiment: as above; settings: both partners purified
T15 construct: source: E. coli Rosetta BL21 DE3 PlysS, purified (Ni-NTA, TEV cleavage, SEC Superdex 75)
T15 sequence (looked up): T1 sequence (Q96ES7 115-293 D266A) with Y131F, A152D

[8] = biological target: T16, Wild-type Sgf29 (SAGA-associated Factor 29) tandem tudor domain, residues 115-293 (human, UniProt Q96ES7 115-293); experiment: as above; settings: both partners purified
T16 construct: also called WT Sgf29; WT; source: E. coli Rosetta BL21 DE3 PlysS, purified (Ni-NTA, TEV cleavage, SEC Superdex 75)
T16 sequence (looked up): T1 sequence (Q96ES7 115-293 D266A) with A152D

[9] = biological target: T17, Sgf29 D266A variant, residues 115-293 (human, UniProt Q96ES7 115-293, D266A); experiment: as above; settings: both partners purified
T17 construct: source: E. coli Rosetta BL21 DE3 PlysS, purified (Ni-NTA, TEV cleavage, SEC Superdex 75)
T17 sequence (looked up): T1 sequence (Q96ES7 115-293 D266A)

[10] = biological target: T18, Sgf29 Y238F variant, residues 115-293 (human, UniProt Q96ES7 115-293, Y238F); experiment: as above; settings: both partners purified
T18 construct: source: E. coli Rosetta BL21 DE3 PlysS, purified (Ni-NTA, TEV cleavage, SEC Superdex 75)
T18 sequence (looked up): T1 sequence (Q96ES7 115-293 D266A) with Y124F, A152D

[11] = D266A, TRIS pH 8.0, ± SD (2–4 repeats)
[12] = D266Y, TRIS pH 8.0, ± SD (2–4 repeats)
[13] = WT Sgf29, TRIS pH 8.0, ± SD (2–4 repeats)
[14] = D266N, TRIS pH 8.0, ± SD (2–4 repeats)
[15] = Y238F, TRIS pH 8.0, ± SD (2–4 repeats)
[16] = D266E, TRIS pH 8.0, ± SD (2–4 repeats)
[17] = Y245F, TRIS pH 8.0, ± SD (2–4 repeats)
[18] = D266F, TRIS pH 8.0, ± SD (2–4 repeats)

more unfavorable ΔH° (difference) (Sgf29 D266A; D266A relative to WT Sgf29): 1.7 kcal/mol
reduction in binding affinity (Sgf29 D266A; D266A relative to WT Sgf29): 8 fold
-TΔS° (Sgf29 D266A; [11]): 0.1 ± 0.1 kcal/mol
ΔG° (Sgf29 D266A; [11]): -6.3 ± 0.1 kcal/mol
ΔH° (Sgf29 D266A; [11]): -6.4 ± 0.1 kcal/mol
decrease in enthalpy (Sgf29 D266Y; D266Y relative to WT Sgf29): 3.3 kcal/mol
increase in entropy (Sgf29 D266Y; D266Y relative to WT Sgf29): about 2.1 kcal mol^-1
-TΔS° (Sgf29 D266Y; [12]): -1.4 ± 0.3 kcal/mol
ΔG° (Sgf29 D266Y; [12]): -6.2 ± 0.1 kcal/mol
ΔH° (Sgf29 D266Y; [12]): -4.8 ± 0.2 kcal/mol
-TΔS° less favorable relative to Sgf29-H3K4me2, by ([1]; H3K4me3 vs H3K4me2, WT Sgf29): 0.7 kcal/mol
ΔH° more favorable relative to Sgf29-H3K4me2, by ([1]; H3K4me3 vs H3K4me2, WT Sgf29): 0.9 kcal/mol
ΔG° [1, 13]: -7.5 ± 0.1 kcal/mol
decrease in binding affinity (Sgf29 D266N; D266N relative to WT Sgf29): 8 fold
increase in entropy / -TΔS° (Sgf29 D266N; D266N relative to WT Sgf29): 0.7 kcal/mol
-TΔS° (Sgf29 D266N; [14]): -0.1 ± 0.1 kcal/mol
ΔH° (Sgf29 D266N; [14]): -6.2 ± 0.1 kcal/mol
thermodynamic profile (in words) (Sgf29 Y238F; Y238F variants with altered or similar CD spectra, compared to WT Sgf29): indistinguishable thermodynamic profiles
-TΔS° (Sgf29 Y238F; [15]): 0.7 ± 0.1 kcal/mol
ΔG° (Sgf29 Y238F; [15]): -7.4 ± 0.1 kcal/mol
ΔH° (Sgf29 Y238F; [15]): -8.1 ± 0.1 kcal/mol
-TΔS° (Sgf29 D266E; [16]): 1.6 ± 0.1 kcal/mol
ΔG° (Sgf29 D266E; [16]): -7.4 ± 0.1 kcal/mol
ΔH° (Sgf29 D266E; [16]): -9.0 ± 0.1 kcal/mol
reduced binding affinity (Sgf29 Y245F; Y245F relative to WT Sgf29): 4.5 fold
-TΔS° (Sgf29 Y245F; [17]): -0.7 ± 0.1 kcal/mol
ΔG° (Sgf29 Y245F; [17]): -6.6 ± 0.1 kcal/mol
ΔH° (Sgf29 Y245F; [17]): -5.9 ± 0.1 kcal/mol
decrease in ΔH° (Sgf29 D266F; D266F relative to WT Sgf29): 4.6 kcal/mol
more favorable -TΔS° (difference) (Sgf29 D266F; D266F relative to WT Sgf29): 3.1 kcal/mol
reduction in binding affinity (Sgf29 D266F; D266F relative to WT Sgf29): 14 fold
-TΔS° (Sgf29 D266F; [18]): -2.5 ± 0.1 kcal/mol
ΔG° (Sgf29 D266F; [18]): -5.9 ± 0.1 kcal/mol
ΔH° (Sgf29 D266F; [18]): -3.4 ± 0.2 kcal/mol
binding (in words) (Sgf29 D266W): abrogated
Molecule: C[C@H](N)C(=O)N[C@@H](CCCNC(=N)N)C(=O)N[C@H](C(=O)N[C@@H](CCCC[N+](C)(C)C)C(=O)N[C@@H](CCC(N)=O)C(=O)N[C@H](C(=O)N[C@@H](C)C(=O)N[C@@H](CCCNC(=N)N)C(=O)N[C@@H](CCCCN)C(=O)N[C@@H](CO)C(N)=O)[C@@H](C)O)[C@@H](C)O [H3K4me3]
-TΔS° [1, 13]: 0.6 kcal/mol and 0.6 ± 0.2 kcal/mol
ΔH° [1, 13]: -8.1 kcal/mol and -8.1 ± 0.2 kcal/mol
ΔG° (Sgf29 D266N; [14]): -6.3 kcal/mol and -6.3 ± 0.1 kcal/mol
binding affinity (in words) (Sgf29 D266E; D266E relative to WT Sgf29): virtually indistinguishable binding affinities

Kd [2]: 28 µM
dH [2]: -4.8 kcal/mol
Kd [3]: 3.9 µM
dH [3]: -9 kcal/mol
Kd [4]: 44 µM
dH [4]: -3.4 kcal/mol
Kd [5]: 25 µM
dH [5]: -6.2 kcal/mol
Kd [6]: > 200 µM
Kd [7]: 14 µM
dH [7]: -5.9 kcal/mol
Kd [8]: 3.1 µM
dH [8]: -8.1 kcal/mol
Kd [9]: 25 µM
dH [9]: -6.4 kcal/mol
Kd [10]: 3.5 µM
dH [10]: -8.1 kcal/mol
B1: 10-mer histone 3 peptide H3K4me3 (ARTKme3QTARKS) (peptide)
peptide: ARTK(Me3)QTARKS-OH
notes: histone H3 N-terminal tail, 10-mer, K4 trimethylated; also called native 10-mer peptide; source: synthetic peptide (manual Fmoc solid-phase synthesis, preparative HPLC)
